Laboratory results: patent EP4596561A1, “PHOSPHORUS-CONTAINING COMPOUND, PHARMACEUTICAL COMPOSITION AND USE THEREOF” (Suzhou Genhouse Bio Co., Ltd., priority 2022, dated 2024)
Read-outs that look alike come from different tables or passages of the source.

What was measured:
[1] = Stability test in liver microsomes; format: in vitro ADME; details: Human liver microsomes, 0.5 mg/mL, 1.0 µM substrate
Procedure: (§1) Phase I metabolic stability of the test compounds in liver microsomes of CD-1 mice, Sprague-Dawley rats, and humans was assessed.
(§2) The animal and human liver microsomes used in the test system were purchased from Xenotech, Corning, or other qualified suppliers and stored in a freezer at a temperature below -60 °C prior to use. The information of the animal and human liver microsomes used was as follows:
(§3) The test samples and the reference compounds were separately incubated with animal and human liver microsomes at 37±1 °C for a period of incubation time of up to 60 min. The samples were taken out at the indicated time points, and the reaction was stopped with acetonitrile or another organic solvent containing an internal standard. After centrifugation, the resulting supernatants were assayed by the liquid chromatography-tandem mass spectrometry (LC-MS/MS) method.
(§4) Microsomes of each species were diluted into a 2× working solution with a 100 mM potassium phosphate buffer. […]
(§5) Incubation was performed in a 96-well plate. Eight incubation plates were prepared and designated T0, T5, T15, T30, T45, T60, Blank60, and NCF60, respectively. The first 6 plates corresponded to reaction time points of 0 min, 5 min, 15 min, 30 min, 45 min, and 60 min, respectively. No test sample or reference compound was added to the Blank60 plate, and samples were taken after 60 min of incubation. In the NCF60 plate, incubation was performed for 60 min using the potassium phosphate buffer instead of the NADPH regeneration system solution. Three replicates were made for samples in all conditions.
(§6) The microsomes and the test sample or reference compound were mixed, and then the incubation plates Blank60, T5, T15, T30, T45, and T60 except for T0 and NCF60 were placed in a 37 °C water bath for pre-incubation for about 10 min. In the incubation plate T0, a stop solution was first added, followed by the addition of the NADPH regeneration system working solution, and 98 µL of the potassium phosphate buffer was added to each sample well of the incubation plate NCF60 to initiate the reaction. After the pre-incubation of the incubation plates Blank60, T5, T15, T30, T45, and T60 was completed, 98 µL of the NADPH regeneration system working solution was added to each sample well to initiate the reaction. The reaction temperature was 37±1 °C, the final volume of the reaction was 200 µL, and the reaction system included 0.5 mg/mL microsomes, 1.0 µM substrate, 1 mM NADP, 6 mM ISO, and 1 unit/mL IDH.
(§7) At 5 min, 15 min, 30 min, 45 min, and 60 min, a cold stop solution containing an internal standard was added to the reaction plate to stop the reaction.
(§8) All the reaction plates after the reaction was stopped were shaken well and centrifuged at 3220× g at 4 °C for 20 min. After the supernatant was diluted at a certain ratio, LC-MS/MS analysis was performed.
(§9) Sample analysis was performed by the liquid chromatography-tandem mass spectrometry (LC-MS/MS) method without standard curves and quality control samples. Semi-quantitative determination was performed according to the ratio of the analyte peak area to the internal standard peak area. The retention times of the analyte and internal standard, the chromatogram acquisition, and chromatogram integration were processed using the Analyst software (Sciex, Framingham, Massachusetts, USA).
(§10) According to the well stir model, the hepatic intrinsic clearance and hepatic clearance can be converted through the following formula. CL(liver) = (CLint(liver)×Qh)/(CLint(liver)+Qh) [formula]

[2] = Stability test in liver microsomes; format: in vitro ADME, SD rat; details: rat liver microsomes, 0.5 mg/mL, 1.0 µM substrate
Procedure: as §1, §2, §3, §4, §5, §6, §7, §8, §9, §10

[3] = Pharmacokinetic test in mice (low dose); format: in vivo, Balb/c mice; details: mouse, mice; for AUC(0-t): read-out: AUClast; for clearance: read-out: Cl (converted); for half-life: read-out: T1/2 (converted); for bioavailability: PO 10 mg/kg vs IV 2 mg/kg, read-out: F%; for Cmax: read-out: Cmax
[4] = Pharmacokinetic test in rats; format: in vivo; details: rat, plasma, SD rats; for bioavailability: PO 10 mg/kg vs IV 2 mg/kg
Procedure: In this experimental example, the pharmacokinetic behavior of the test compounds after administration by intravenous injection (IV) and oral gavage (PO) in SD rats was tested. Preparation of formulations for administration referred to the low-dose pharmacokinetic test in mice.
On the day of administration, rats were weighed for actual body weight, and the administration volume was calculated. Each compound was tested in two groups with 3 rats in each group; one group was subjected to administration by single intravenous injection, and the other group was subjected to administration by single gavage. The whole blood samples were collected via the jugular vein at prescribed time points (0.25 h, 0.5 h, 1 h, 2 h, 4 h, 8 h, and 24 h after administration). After the blood sample collection, the samples were immediately transferred to labeled commercial sample tubes containing K2-EDTA (0.85-1.15 mg), followed by centrifugation (3200× g, 4 °C, 10 min) and plasma collection. The plasma was transferred to a pre-cooled centrifuge tube, frozen in dry ice, and then stored in an ultra-low temperature freezer at -60 °C or lower until the LC-MS/MS analysis was performed.
Plasma concentrations were determined by the LC-MS/MS method. Plasma drug concentration data for the compounds were processed using a non-compartmental model in the WinNonlin Version 6.3 (Pharsight, Mountain View, CA) pharmacokinetic software. The relevant pharmacokinetic parameters were calculated by a linear-log trapezoidal method.

SMILES	half-life at 1 µM [1] [h]	half-life at 1 µM [2] [h]	MRT ([3]; in vivo, IV 2 mg/kg) [h]	AUC(0-t) ([3]; in vivo, IV 2 mg/kg) [µM·h]	clearance ([3]; in vivo, IV 2 mg/kg) [mL/min/kg]	half-life ([3]; in vivo, IV 2 mg/kg) [h]	MRT ([3]; in vivo, PO 10 mg/kg) [h]	bioavailability ([3]; in vivo) [%]	AUC(0-t) ([3]; in vivo, PO 10 mg/kg) [µM·h]	Cmax ([3]; in vivo, PO 10 mg/kg) [µM]	half-life ([3]; in vivo, PO 10 mg/kg) [h]	AUC(0-t) ([4]; IV 2 mg/kg) [µM·h]	MRT ([4]; IV 2 mg/kg) [h]	clearance ([4]; IV 2 mg/kg) [mL/min/kg]	half-life ([4]; IV 2 mg/kg) [h]	AUC(0-t) ([4]; PO 10 mg/kg) [µM·h]	MRT ([4]; PO 10 mg/kg) [h]	half-life ([4]; PO 10 mg/kg) [h]	bioavailability [4] [%]	MRT ([3]; plasma, IV 2 mg/kg) [h]	other results
Cn1cnc(-c2cc(P(C)(C)=O)cnc2Nc2ccc(C(F)(F)F)cc2)c1 [Example 8]	> 2.42	> 2.42	6.4	7.94	10	5.6	47.2	300	119	14.6	34.2	8.89	7.8	9	6.2	59.3	20.6	14.7	133	–	–
Cn1cnc(-c2cc(P(C)(C)=O)ccc2Nc2ccc(C(F)(F)F)cc2)c1 [Example 14]	> 2.42	> 2.42	26.2	21.2	2.33	19	17.8	106	112	8.08	12.3	16.9	10.2	4.67	8.1	83.2	15	10.9	98	–	–
Cc1ccc(Oc2ccc(C(F)(F)F)cc2)c2ccc(P(C)(C)=O)cc12 [Example 24]	2.77	1.37	–	22.1	3.3	11	–	120	133	7.82	16.2	–	–	–	–	–	–	–	–	–	–
CP(C)(=O)c1ccc2c(c1)c1cccnc1n2-c1ccc(C(F)(F)F)cc1 [Example 5]	–	–	–	–	–	–	–	–	–	–	–	–	–	–	–	–	–	–	–	2.5	AUC(0-t) ([3]; plasma, IV 2 mg/kg): 9.37 µM·h; clearance ([3]; plasma, IV 2 mg/kg): 8.33 mL/min/kg; half-life ([3]; plasma, IV 2 mg/kg): 1.8 h; MRT ([3]; plasma, PO 10 mg/kg): 5.3 h; bioavailability ([3]; plasma): 318%; AUC(0-t) ([3]; plasma, PO 10 mg/kg): 155 µM·h; Cmax ([3]; plasma, PO 10 mg/kg): 15.5 µM; half-life ([3]; plasma, PO 10 mg/kg): 2.6 h
CP(C)(=O)c1ccc(Nc2ccc(C(F)(F)F)cc2)c(-c2ncccn2)c1 [Example 12]	> 2.42	> 2.42	–	–	–	–	–	–	–	–	–	34.9	76.3	1.17	54.2	114	24.9	21.8	65	23.4	AUC(0-t) ([3]; plasma, IV 2 mg/kg): 58.8 µM·h; clearance ([3]; plasma, IV 2 mg/kg): 1 mL/min/kg; half-life ([3]; plasma, IV 2 mg/kg): 17.2 h; MRT ([3]; plasma, PO 10 mg/kg): 34.5 h; bioavailability ([3]; plasma): 100%; AUC(0-t) ([3]; plasma, PO 10 mg/kg): 295 µM·h; Cmax ([3]; plasma, PO 10 mg/kg): 16.1 µM; half-life ([3]; plasma, PO 10 mg/kg): 25.6 h
CP(C)(=O)c1ccc2c(c1)c1ccccc1n2-c1ccc(C(F)(F)F)cc1 [Example 1]	> 2.42	> 2.42	6.1	30.7	2.83	4.2	6.5	118	182	12.9	3.9	113	46.3	0.333	32.4	605	69.9	66.9	107	–	–
CP(C)(=O)c1cnc(Nc2ccc(C(F)(F)F)cc2)c(-c2cn3c(n2)CCC3)c1 [Example 22]	> 2.42	> 2.42	10.8	16.4	4.17	8.9	9.9	114	96.4	7.07	7.6	6.42	7.6	11	5.8	32.2	9.6	7.3	95	–	–
CP(C)(=O)c1ccc2c(Oc3ccc(C(F)(F)F)cc3)cccc2c1 [Example 7]	> 2.42	> 2.42	171	50.7	0.25	120	211	106	267	12.7	146	44.5	20.5	2	15.7	308	28.5	19.5	142	–	–
CP(C)(=O)c1ccc(Nc2ccc(C(F)(F)F)cc2)c(-c2ccccn2)c1 [Example 10]	> 2.42	> 2.42	–	–	–	–	–	–	–	–	–	21.7	26.5	3	19	152	25.7	17.8	140	75	AUC(0-t) ([3]; plasma, IV 2 mg/kg): 59.3 µM·h; clearance ([3]; plasma, IV 2 mg/kg): 0.4 mL/min/kg; half-life ([3]; plasma, IV 2 mg/kg): 52 h; MRT ([3]; plasma, PO 10 mg/kg): 75.6 h; bioavailability ([3]; plasma): 98%; AUC(0-t) ([3]; plasma, PO 10 mg/kg): 290 µM·h; Cmax ([3]; plasma, PO 10 mg/kg): 14.6 µM; half-life ([3]; plasma, PO 10 mg/kg): 28.2 h
